Measurements reported in paper PMC2365111, “Cytotoxicity of Poly(Phenolic)Sulfonates and Their Sodium Salts in L1210 Lymphoid Leukemia Cells” (Metal-Based Drugs, 1998).

Key:
Conditions in all cases: 60 min, N=6
[1] = system: tRNA polymerase; test: Transfer-RNA polymerase activity, L1210; format: biochemical, mouse
Excerpt: (§1) CYTOTOXlCITY OF POLY(PHENOLIC)SULFONATES AND THEIR SODIUM SALTS IN L1210 LYMPHOID LEUKEMIA CELLS Fei Wang, Amy E. Warren, Cheryl R. Barnes and Iris H. Hall* Division of Medicinal Chemistry and Natural Products University of North Carolina Chapel Hill, N.C. […] Because ofthese properties it was surmised that these poly(phenolic)sulfonated compounds may have antineoplastic activity. METHODS Source of Compounds Test compounds were supplied by GeneLabs, Inc. [Redwood City, CA [Table 1]. Radioisotopes were obtained from New England Nuclear [Dupont, Boston, MA]. Substrates and co-factors were purchased om Sigma Chemical Co., [St Louis, MO]. Pentosan sulfate and other antineoplastic standards were obtained from Sigma Chemical Co. Tumor lines were obtained from American Type Culture Collection [Rockville, MD]. 147 Vol. 5, No. 3, 1998 Cytotoxicity ofSodium Poly(Phenolic)Sulfonates in L1210 Lymphoid Leukemia Cells Table 1 Structures of Poly(phenolic)sulfonate Compounds O2R" n Compound R' R" n MW # G1-2041 H OH 8 1489.46 G1-2029 H OH 6 1117.09 G1-2030 H OH 4 744.73 GI-2021 CH3 ONa 8 1777.5 G1-2057 CH3 ONa 4 888.75 GI-2158 CH3 ONa 6 1333.13 GI-2063 OCH3 ONa 8 2001.65 G1-2042 OAc ONa 8 2017.73 Cytotoxicity Poly(phenolic)sulfonates were tested for cytotoxic activity by homogenizing drug in 0.05% Tween 80/H20 to give a mg/ml stock concentration. These solutions were sterilized by passing them through an acrodisc ([…]). The following cell lines were maintained by literature techniques: murine L1210 lymphoid leukemia, P-388 lymphocytic leukemia, rat UMR 106 osteosarcoma, human Tmolt3 acute lymphoblastic T cell leukemia, HUT-8 lymphoma, HeLa-S suspended cervical carcinoma, HeLa solid cervical carcinoma, KB epidermoid nasopharynx, A431 epidermoid carcinoma, colorectal adenocarcinoma SW480, HCT-8 ileocecal adenocarcinoma, lung bronchogenic MB-9812, A549 lung carcinoma, and glioma HS683. Geran et al.'s protocol was used to assess the cytotoxicity of the compounds and standards in each cell line. Cell numbers were determined by the trypan blue exclusion technique. Solid tumor cytotoxicity was determined by Leibovitz et al. 's method utilizing crystal violeeOH and read at 562 nm (Molecular Devices). Values for cytotoxicity were expressed as EDs0 g/ml, i.e. the concentration ofthe compound inhibiting 50% ofcell growth. A value of less than 4 µg/ml was required for significant activity ofgrowth inhibition. Incorporation Studies Incorporation of labeled precursors into 3H-DNA, 3H -RNA and 3H -protein for 10 L1210 cells was obtained. The concentration response for inhibition of DNA, RNA and protein synthesis of the compounds at 25, 50 and 100 l.tM was determined for 60 min incubations. Incorporation of 14C -glycine (53.0 mCi/mmol) into purines was obtained by the method of Cadman et al.[12]. Incorporation of 4C- formate (53.0 mCi/mmol) into pyrimidines was determined by the method of Christopherson et al.[13]. Enzyme Assays Inhibition of various enzyme activities was performed by first preparing the appropriate L1210 cell homogenates or subcellular fractions, then adding the drug to be tested during the enzyme assay. For the concentration response studies, inhibition of enzyme activity was determined at 25, 50 and 100 l.tM of compounds G1-2021, G1-2029, GI-2041 and G1-2063 after 60 min incubations. DNA polymerase Ot activity was determined in cytoplasmic extracts isolated by Eichler et aL's method. The DNA polymerase assay was described by Sedwick et al.[15] using 3H-TTP. Messenger-, ribosomal- and transfer-RNA polymerase enzymes were isolated with different concentrations of ammonium sulfate; individual RNA polymerase activities were determined using 3H -UTP 16,17]. Ribonucleoside reductase activity was measured using 4C -CDP with dithioerythritol. The deoxyribonucleotides 4C -dCDP were separated from the ribonucleotides by TLC on PEI plates. […]

[2] = target: T1, mRNA polymerase (Mus musculus, UniProt P08775); test: Messenger-RNA polymerase activity, L1210; format: biochemical
T1 construct: Messenger-, ribosomal- and transfer-RNA polymerase enzymes were isolated with different concentrations of ammonium sulfate; endogenous in cells; host or cells: L1210 murine lymphoid leukemia cells, ammonium sulfate fraction
Excerpt: CYTOTOXlCITY OF POLY(PHENOLIC)SULFONATES AND THEIR SODIUM SALTS IN L1210 LYMPHOID LEUKEMIA CELLS Fei Wang, Amy E. Warren, Cheryl R. Barnes and Iris H. Hall* Division of Medicinal Chemistry and Natural Products University of North Carolina Chapel Hill, N.C. […] Because ofthese properties it was surmised that these poly(phenolic)sulfonated compounds may have antineoplastic activity. METHODS Source of Compounds Test compounds were supplied by GeneLabs, Inc. [Redwood City, CA [Table 1]. Radioisotopes were obtained from New England Nuclear [Dupont, Boston, MA]. Substrates and co-factors were purchased om Sigma Chemical Co., [St Louis, MO]. Pentosan sulfate and other antineoplastic standards were obtained from Sigma Chemical Co. Tumor lines were obtained from American Type Culture Collection [Rockville, MD]. […] Cell numbers were determined by the trypan blue exclusion technique. Solid tumor cytotoxicity was determined by Leibovitz et al. 's method utilizing crystal violeeOH and read at 562 nm (Molecular Devices). Values for cytotoxicity were expressed as EDs0 g/ml, i.e. the concentration ofthe compound inhibiting 50% ofcell growth. […] Incorporation of 4C- formate (53.0 mCi/mmol) into pyrimidines was determined by the method of Christopherson et al.[13]. […] DNA polymerase Ot activity was determined in cytoplasmic extracts isolated by Eichler et aL's method. […] Messenger-, ribosomal- and transfer-RNA polymerase enzymes were isolated with different concentrations of ammonium sulfate; individual RNA polymerase activities were determined using 3H -UTP 16,17]. Ribonucleoside reductase activity was measured using 4C -CDP with dithioerythritol. […]

[3] = system: L1210 RNA synthesis; test: Incorporation of labeled precursor into RNA; format: cell-based, mouse
Excerpt: as §1, with “Enzyme Assays Inhibition of various enzyme activities was performed by first preparing the appropriate L1210 cell homogenates or subcellular fractions, then adding the drug to be tested during the enzyme assay. For the concentration response studies, inhibition of enzyme activity was determined at 25, 50 and 100 l.tM of compounds G1-2021, G1-2029, GI-2041 and G1-2063 after 60 min incubations.” left out, “The DNA polymerase assay was described by Sedwick et al.[15] using 3H-TTP.” left out, “dithioerythritol.” for “dithioerythritol. The deoxyribonucleotides 4C -dCDP were separated from the ribonucleotides by TLC on PEI plates.”

[4] = target: T2, Carbamyl phosphate synthetase (Mus musculus, UniProt B2RQC6); test: Carbamyl phosphate synthetase activity, L1210; format: biochemical
T2 construct: preparing the appropriate L1210 cell homogenates or subcellular fractions; endogenous in cells; host or cells: L1210 murine lymphoid leukemia cells, homogenate or subcellular fraction
Excerpt: as §1

T2 sequence (B2RQC6 whole entry): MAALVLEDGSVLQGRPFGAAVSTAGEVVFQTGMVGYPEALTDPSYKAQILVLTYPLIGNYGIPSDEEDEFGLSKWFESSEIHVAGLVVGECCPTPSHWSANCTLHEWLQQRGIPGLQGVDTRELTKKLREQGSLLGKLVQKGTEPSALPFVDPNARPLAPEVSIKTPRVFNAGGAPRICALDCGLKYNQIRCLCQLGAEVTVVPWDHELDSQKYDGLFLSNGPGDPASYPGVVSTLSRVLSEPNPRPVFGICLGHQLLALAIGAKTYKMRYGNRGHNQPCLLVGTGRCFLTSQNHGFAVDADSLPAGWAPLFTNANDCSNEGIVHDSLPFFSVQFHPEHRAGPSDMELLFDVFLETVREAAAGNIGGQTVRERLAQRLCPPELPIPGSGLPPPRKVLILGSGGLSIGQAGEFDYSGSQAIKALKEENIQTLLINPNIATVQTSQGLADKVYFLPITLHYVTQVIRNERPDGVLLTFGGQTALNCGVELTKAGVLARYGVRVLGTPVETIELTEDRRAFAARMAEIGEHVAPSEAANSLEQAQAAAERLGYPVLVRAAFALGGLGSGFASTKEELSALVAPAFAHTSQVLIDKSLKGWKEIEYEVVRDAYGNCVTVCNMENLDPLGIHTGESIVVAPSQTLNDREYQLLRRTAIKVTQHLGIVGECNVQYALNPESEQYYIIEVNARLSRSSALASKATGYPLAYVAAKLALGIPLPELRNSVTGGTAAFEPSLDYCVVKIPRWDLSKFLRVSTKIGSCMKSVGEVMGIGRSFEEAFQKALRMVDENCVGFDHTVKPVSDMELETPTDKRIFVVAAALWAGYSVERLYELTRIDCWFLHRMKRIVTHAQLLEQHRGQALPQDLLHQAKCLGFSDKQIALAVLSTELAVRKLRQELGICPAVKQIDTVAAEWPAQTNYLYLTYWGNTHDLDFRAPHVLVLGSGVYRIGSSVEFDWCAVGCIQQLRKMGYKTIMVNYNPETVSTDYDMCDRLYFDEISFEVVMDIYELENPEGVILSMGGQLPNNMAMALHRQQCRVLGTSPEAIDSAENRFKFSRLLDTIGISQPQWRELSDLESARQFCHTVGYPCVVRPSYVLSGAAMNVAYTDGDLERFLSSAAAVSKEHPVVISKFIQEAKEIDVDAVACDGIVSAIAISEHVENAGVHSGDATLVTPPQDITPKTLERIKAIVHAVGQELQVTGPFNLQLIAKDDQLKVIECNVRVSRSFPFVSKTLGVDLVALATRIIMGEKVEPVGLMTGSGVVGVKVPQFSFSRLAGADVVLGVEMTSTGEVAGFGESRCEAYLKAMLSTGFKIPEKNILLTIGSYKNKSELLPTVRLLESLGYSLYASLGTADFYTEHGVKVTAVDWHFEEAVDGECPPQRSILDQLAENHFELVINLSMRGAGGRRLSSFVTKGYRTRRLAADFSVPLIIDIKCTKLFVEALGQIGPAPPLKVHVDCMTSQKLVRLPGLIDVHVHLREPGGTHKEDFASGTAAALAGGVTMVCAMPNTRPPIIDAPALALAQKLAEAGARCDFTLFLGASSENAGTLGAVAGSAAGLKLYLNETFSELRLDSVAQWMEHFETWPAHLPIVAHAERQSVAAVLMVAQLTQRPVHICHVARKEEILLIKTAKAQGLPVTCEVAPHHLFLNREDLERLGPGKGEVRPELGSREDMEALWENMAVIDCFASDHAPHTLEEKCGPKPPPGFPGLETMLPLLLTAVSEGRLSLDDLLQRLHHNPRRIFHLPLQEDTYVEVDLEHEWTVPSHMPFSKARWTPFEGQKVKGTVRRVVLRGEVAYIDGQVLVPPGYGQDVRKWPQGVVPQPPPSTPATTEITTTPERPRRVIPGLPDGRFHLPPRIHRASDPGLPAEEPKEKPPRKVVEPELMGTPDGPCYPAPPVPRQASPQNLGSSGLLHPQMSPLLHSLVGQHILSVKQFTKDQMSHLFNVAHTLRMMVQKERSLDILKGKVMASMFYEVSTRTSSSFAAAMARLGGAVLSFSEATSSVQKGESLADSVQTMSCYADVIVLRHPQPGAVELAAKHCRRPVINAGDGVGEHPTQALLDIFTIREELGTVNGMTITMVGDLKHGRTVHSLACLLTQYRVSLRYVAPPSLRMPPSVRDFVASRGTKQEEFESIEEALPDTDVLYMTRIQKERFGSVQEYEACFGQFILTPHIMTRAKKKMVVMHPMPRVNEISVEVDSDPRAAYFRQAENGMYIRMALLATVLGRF

Row | Compound | tRNA polymerase ([1]; 25 μM) | mRNA polymerase ([2]; 100 μM) | RNA synthesis ([3]; 25 μM) | Carbamyl phosphate synthetase ([4]; 25 μM) | Carbamyl phosphate synthetase ([4]; 50 μM) | tRNA polymerase ([1]; 50 μM) | RNA synthesis ([3]; 50 μM) | Carbamyl phosphate synthetase ([4]; 100 μM) | tRNA polymerase ([1]; 100 μM) | mRNA polymerase ([2]; 25 μM) | RNA synthesis ([3]; 100 μM)
1 | O=S(=O)(O)c1cc2c(O)c(c1)Cc1cc(S(=O)(=O)O)cc(c1O)Cc1cc(S(=O)(=O)O)cc(c1O)Cc1cc(S(=O)(=O)O)cc(c1O)Cc1cc(S(=O)(=O)O)cc(c1O)Cc1cc(S(=O)(=O)O)cc(c1O)Cc1cc(S(=O)(=O)O)cc(c1O)Cc1cc(S(=O)(=O)O)cc(c1O)C2 [GI-2041] | 108+6% of Control | 47+3% of Control | 130+5% of Control | 142+6% of Control | 82+5% of Control | – | – | – | – | – | –
2 | O=S(=O)(O)c1cc2c(O)c(c1)Cc1cc(S(=O)(=O)O)cc(c1O)Cc1cc(S(=O)(=O)O)cc(c1O)Cc1cc(S(=O)(=O)O)cc(c1O)Cc1cc(S(=O)(=O)O)cc(c1O)Cc1cc(S(=O)(=O)O)cc(c1O)C2 [GI-2029] | 103+5% of Control | 50+3% of Control | – | 78+5% of Control | – | 98+5% of Control | 91+5% of Control | 72+3% of Control | – | – | –
3 | COc1c2cc(S(=O)(=O)[O-])cc1Cc1cc(S(=O)(=O)[O-])cc(c1OC)Cc1cc(S(=O)(=O)[O-])cc(c1OC)Cc1cc(S(=O)(=O)[O-])cc(c1OC)Cc1cc(S(=O)(=O)[O-])cc(c1OC)Cc1cc(S(=O)(=O)[O-])cc(c1OC)Cc1cc(S(=O)(=O)[O-])cc(c1OC)Cc1cc(S(=O)(=O)[O-])cc(c1OC)C2.[Na+].[Na+].[Na+].[Na+].[Na+].[Na+].[Na+].[Na+] [GI-2021] | 98+5% of Control | – | 109+6% of Control | 94+5% of Control | 89+5% of Control | 85+5% of Control | 94+6% of Control | – | 76+4% of Control | 99+5% of Control | 78+4% of Control
